This assay deals with T1, troponin I and the actin-tropomyosin complex (Homo sapiens, UniProt P19429).
T1 construct: human myocardium-derived troponin I with a molecular weight of 24 kDa; purchased Calbiochem Inc (troponin I); Abcam PLC (troponin C); SIGMA (actin, tropomyosin); host or cells: troponin I from human myocardium
In words: Experiments 6 and 7: affinity of troponin I and the actin-tropomyosin complex (co-precipitation at defined Ca concentration). In kind it is binding. How it is done: A solution of 0.4 μg of troponin I (Calbiochem Inc) and 0.54 μg of troponin C (Abcam PLC) was added to 23 μl of distilled water, distributed to 4 test tubes, and centrifuged at 100,000 g for 1 hour (HITACHI Himac 120FC), and 20 μl of the resulting supernatant was collected and stored at 4° C. Then, 50 μl of 600 mM KCl solution, 50 μl of 200 mM MOPS (3-morpholinopropanesulfonic acid) [3-N (morpholino) propanesulfonic acid] (DOJINDO) solution, 50 μl of 20 mM MgCl2 solution, 5 μl of 10 mg/ml pepstatin A (SIGMA) solution, and 50 μl of 150 mM 2-mercaptoethanol (SIGMA) were added as a reaction solution to 99.4 μl of distilled water, and distributed to another 4 test tubes. Next, 3.2 μl of 1 mg/ml actin (SIGMA) and 2.4 μl of 1 mg/ml tropomyosin (SIGMA) were added and mixed, and the mixture was then centrifuged at 2000 g for 5 minutes at 25° C. using a centrifuge (HITACHI Himac CF7D2). The resulting supernatant was put into 4 new test tubes, 50 μl of 50 mM ATP (adenosine 5′-triphosphate) solution was added, and the solution was incubated at 25° C. with mixing for 30 minutes.
Next, 20 μl of the 100,000 g supernatant of troponin I and troponin C which was previously prepared was added to each test tube, and incubated at 25° C. with mixing for 30 minutes. Distilled water alone or 50 μl of a test solution in which the final concentration of the compound was adjusted to 10^−7, 10^−6 and 10^−5 M was added, and the resulting solution was incubated at 25° C. with mixing for 30 minutes.
[…] The solution was incubated at 25° C. with intermittent mixing for 60 minutes, and then centrifuged at 100,000 g for 120 minutes at 25° C. using a centrifuge (HITACHI Himac 120FC: brand name).
After centrifugation, the supernatant was removed, 1 ml of the reaction liquid (excluding Ca^2+ and the drug) was gently added so as not to suspend any precipitate, and the precipitate was again removed by suction; the procedure was repeated twice and the precipitate washed 3 times in total.
The washing solution was removed completely, 20 μl of a sample buffer for polyacrylamide gel electrophoresis (SDS-PAGE) was added and mixed well, the precipitate was suspended and heated for 5 minutes at 95° C., and then poured into a PAG MINI “No. 1” 10/20 gel (Daiichi Pure Chemicals Co., Ltd) and electrophoresized for about 1 hour at 40 mA. After electrophoresis, the suspension was silver-stained using “Daiichi” 2D-silver staining reagent (Daiichi Pure Chemicals Co., Ltd), and washed and dried. Finally, the suspension was scanned (EPSON ES-8500 scanner: brand name) and analyzed (Image J software: brand name).
In this experiment, at a calcium concentration in the test tube of 10^−6 M, the amount of troponin I precipitated in the absence of the compound was set at 1.0. Relatively, the amount of co-precipitation in the presence of 10^−7, 10^−6 and 10^−5 M concentrations of the compound was 1.4, 3.4, and 5.4, respectively; therefore, it was confirmed that the amount of troponin I precipitate increased with an increase in the compound concentration. The actin used in this experiment was swine skeletal muscle-derived actin with a molecular weight of 43 kDa, and was purchased from SIGMA. Tropomyosin used in this experiment was gizzard-derived tropomyosin with a molecular weight of 36 kDa, and was purchased from SIGMA. Troponin I used in this experiment was human myocardium-derived troponin I with a molecular weight of 24 kDa, and was purchased from Calbiochem Inc. Troponin C used in this experiment was human myocardium recombinant-derived troponin C with a molecular weight of 18 kDa, and was purchased from Abcam PLC. These proteins were separated by SDS-polyacrylamide gel electrophoresis and each band was clearly identifiable. […]

Setting [1] is: Ca 10^−6 M, the compound 10^−5 M.

For `COc1ccc2c(c1)CN(C(=O)CCN1CCC(Cc3ccccc3)CC1)CCS2` [the compound, 4-[3-(4-benzylpiperidine-1-yl)propionyl]-7-methoxy-2,3,4,5-tetrahydro-1,4-benzothiazepine], the “Amount of precipitate of troponin I, Ratio (Ca 10^−8 M = 1.0)” value came to 0.78 (Ca 10^−5 M, the compound 10^−5 M); 0.81 under setting [1]; 0.94 (Ca 10^−7 M, the compound 10^−5 M); 1.0 (Ca 10^−8 M, the compound 10^−5 M (reference set at 1.0)). Besides, the “Amount of precipitate of troponin I, Ratio (no compound = 1.0)” value worked out at 5.4 under setting [1]; 3.4 (Ca 10^−6 M, the compound 10^−6 M); 1.4 (Ca 10^−6 M, the compound 10^−7 M).

Values taken from patent publication US20070219180A1, “Muscle Relaxtion Accelerator and Therapeutic Agent for Muscular Tissue Diseases Such as Muscle Relaxation Failure” (priority 2004, published 2007).
